Consider 3 molecules from ChEMBL document CHEMBL5576080, “Oropouche virus - The "Newest" invisible public enemy?” (Bioorg Med Chem, 2024).

The CC50 is the concentration at which the toxic effect on the cells reaches its halfway point. One may read the pEC50 as −log10 of the EC50, conventionally taken in molar units. The pIC50 is the IC50 on a negative log10 scale, so that one unit is a factor of ten.

pEC50, pIC50: −log10 of the molar value. The source made the active and inactive calls. The calls are words filed in the database; no cut-off is given here.

In series [1] the test system is Oropouche virus. Nature of the series: (§1) Inhibition of Oropouche virus N-terminal His-tagged fusion endonuclease expressed in Escherichia coli Rosetta (DE3) cells using FAM-TCT CTA GCA GTG GCG CC-TAM as DNA substrate measured every 60 secs for 60 mins by fluorescence based analysis.
Series [2] is described as follows: Selectivity index, ratio of CC50 for African green monkey Vero cells to EC50 for Oropouche virus infected in Vero cells. As to conditions: read-out: Ratio CC50/EC50. The class given is toxicity, cell-based.
The nature of series [3]: Cytotoxicity against African green monkey Vero cells assessed as reduction in cell viability measured after 72 hrs by MTT assay. As to conditions: chlorocebus sabaeus. Type of series: toxicity, cell-based. A general note: Formazan colour is commonly taken as a measure of viable cells.
Series [4] deals with Oropouche virus. Put plainly: Antiviral activity against Oropouche virus infected in Vero cells incubated for 1 hr and measured after 3 days by crystal violet staining based analysis. The class given is functional, organism-based.
A short description of series [5]: Inhibition of Oropouche virus N-terminal His-tagged fusion endonuclease expressed in Escherichia coli Rosetta (DE3) cells using FAM-TCT CTA GCA GTG GCG CC-TAM as DNA substrate measured every 60 secs for 60 mins by FRET assay.
Series [6] can be described thus: as §1.

With `Oc1cc(O)c2c(O)c3cc4ccccc4cc3nc2c1`, in the series on Oropouche virus [1], the inhibition result is “inactive”. In addition, the selectivity ratio in series [2] stood at 70.8. The cytotoxic concentration (CC50) at 72 h in series [3] is 1530 µM. Further, the pEC50 in the series on Oropouche virus [4] is 4.67.
As for `COc1cc(O)c2c(c1)oc(=O)c1c3cc(O)c(O)cc3oc21` [WEDELOLACTONE], the pIC50 in series [5] is 6.51. For the same molecule, the 50% cytotoxic concentration (CC50) at 72 h in series [3] came to 374 µM. This molecule also had a negative logarithm of the EC50 (pEC50) in the series on Oropouche virus [4] of 4.72.
`COc1cc2[nH]c3c(OC)c(OC)ccc3c(=O)c2c(OC)c1OC` [CUSCULINE]: the pIC50 in series [6] was 5.85. Further, the selectivity ratio in series [2] is 49.6. Further, the CC50 at 72 h in series [3] stood at 1640 µM. In addition, the negative-log EC50 (pEC50) in the series with Oropouche virus [4] was 4.48.
